These results are taken from ChEMBL document CHEMBL4609992, “Discovery of novel small molecule induced selective degradation of the bromodomain and extra-terminal (BET) bromodomain protein BRD4 and BRD2 with cellular potencies” (Bioorg Med Chem, 2020).

For assay [1], the system named is MV4-11. The experiment in a line: Antiproliferative activity against human MV4-11 cells assessed as reduction in cell viability measured after 48 hrs by CellTiter-Glo assay. The assay is classed as functional, cell-based. The note with it: MV4-11, 48 h. A general note: Cellular ATP, detected with luciferase, serves as a proxy for viable cell number.
The subject of assay [2] is MOLM-13. The experiment in a line: Antiproliferative activity against human MOLM13 cells assessed as reduction in cell viability measured after 48 hrs by CellTiter-Glo assay. The assay is classed as functional, cell-based. The note with it: MOLM-13, 48 h.
Assay [3] has as its target T1, Bromodomain-containing protein 4 (Homo sapiens, UniProt O60885). Nature of the assay: Selectivity index, ratio of IC50 for BRD4 BD2 (unknown origin) to IC50 for BRD4 BD1 (unknown origin).
For assay [4], the system named is MV4-11. Nature of the assay: Induction of apoptosis in human MV4-11 cells at 10 uM measured after 24 hrs by Annexin V-FITC/propidium iodide staining based FACScan flow cytometry relative to control. Type of assay: functional.
Assay [5] addresses T2, Protein cereblon/Bromodomain-containing protein 4/Cullin-4A (Homo sapiens) (UniProt O60885+Q96SW2+Q13619). The experiment in a line: Protac activity at cereblon/cullin4A/BRD4 in human MV4-11 cells assessed as induction of BRD4 degradation at 100 nM measured after 1 to 4 hrs by Western blot analysis. The assay is classed as cell-based. (A western blot detects proteins with antibodies after separation by electrophoresis.)

Assay [6] deals with T2, Protein cereblon/Bromodomain-containing protein 4/Cullin-4A (Homo sapiens). Nature of the assay: Protac activity at cereblon/cullin4A/BRD4 in human MV4-11 cells assessed as induction of BRD4 degradation at 100 nM measured after >= 8 hrs by Western blot analysis. Type of assay: cell-based.
Assay [7] shares this target. The experiment in a line: Protac activity at cereblon/cullin4A/BRD4 in human MV4-11 cells assessed as downregulation of c-Myc at 50 nM measured after 18 hrs by Western blot analysis. The assay is classed as cell-based.
Assay [8] has the same target. Nature of the assay: Protac activity at cereblon/cullin4A/BRD4 in human MV4-11 cells assessed as induction of BRD4 degradation at 500 nM measured after 18 hrs by Western blot analysis relative to control. Type of assay: cell-based.
The target in assay [9] is T1, Bromodomain-containing protein 4. The experiment in a line: Binding affinity to recombinant human N-terminal His-tagged BRD4 BD1 (44 to 170 residues) expressed in Escherichia coli using H4K5AcK8Ac as substrate measured after 30 mins by AlphaScreen assay.
For assay [10] the target is unchanged. Nature of the assay: Binding affinity to recombinant human N-terminal His-tagged BRD4 BD2 (349 to 460 residues) expressed in Escherichia coli measured after 30 mins by AlphaScreen assay. On the technique in general: In Alpha technology, singlet oxygen from a donor bead excites a nearby acceptor bead.

Molecules are shown by their SMILES. Calls of active or inactive are those of the source. The calls are words filed in the database; no cut-off is given here. Where only a bound is given, the exact number is not on record here.

By IC50 is commonly meant the concentration that inhibits the measured activity by half. For `Cc1sc2c(c1C)C(c1ccc(Cl)cc1)=N[C@@H](CC(=O)OC(C)(C)C)c1nnc(C)n1-2`, in [1], the IC50 turned out to be 80.8 nM.
In the case of `COc1ccccc1S(=O)(=O)Nc1ccc2c3c(cc(CCC(=O)NCCNc4cccc5c4C(=O)N(C4CCC(=O)NC4=O)C5=O)cc13)C(=O)N2C` (centres undefined), the IC50 in assay [2] was more than 10000 nM; in [1] it was 1650 nM.
In the case of `COc1ccccc1S(=O)(=O)Nc1ccc2c3c(cccc13)C(=O)N2C`, the Ratio IC50 in [3] is 50. For the same compound, the figures for the half-inhibitory concentration (IC50) in [2] and in [1] were 3370 nM and 370 nM, respectively. The Activity in [4] is reported as 86.07%.
Consider `COc1ccccc1S(=O)(=O)Nc1ccc2c3c(cc(CCC(=O)NCCCNc4cccc5c4C(=O)N(C4CCC(=O)NC4=O)C5=O)cc13)C(=O)N2C` (centres undefined), for which the result in assay [5], in [6] and in assay [7] was Active. The IC50 in assay [2] turned out to be 180 nM; in [1], 25.2 nM. In addition, the Activity in assay [8] was found to be 100%.
Turning to `COc1ccccc1S(=O)(=O)Nc1ccc2c3c(cc(CCC(=O)NCCCCCNc4cccc5c4C(=O)N(C4CCC(=O)NC4=O)C5=O)cc13)C(=O)N2C` (centres undefined), the results for the IC50 in assay [2] and in assay [1] were 177 nM and 32.2 nM, respectively.
For the compound `COC(=O)CCc1cc2c3c(ccc(NS(=O)(=O)c4ccccc4OC)c3c1)N(C)C2=O`, the IC50 in assay [9] is 365 nM; in assay [10], 3690 nM.
For the compound `COc1ccccc1S(=O)(=O)Nc1ccc2c3c(cc(CCC(=O)NCCCCCCNc4cccc5c4C(=O)N(C4CCC(=O)NC4=O)C5=O)cc13)C(=O)N2C` (centres undefined), the IC50 in [2] is more than 10000 nM; in assay [1] it was 3430 nM.
